The source made the active and inactive calls. The rule behind the calls is not given here.
Tests used:
PC-3 [1] = assay: Cytotoxicity against human PC3 cells assessed as cell viability at 50 uM after 72 hrs by crystal violet method (reference value: 95.69 +/- 7.66%); type: functional; conditions: PC-3, 72 h, read-out: Activity
PC-3 [2] = assay: Cytotoxicity against human PC3 cells at 0.05 to 0.5 uM after 72 hrs by crystal violet method
PC-3 [3] = assay: Cytotoxicity against human PC3 cells assessed as cell viability at 50 uM after 24 hrs by crystal violet method (reference value: 99.09 +/- 9.87%); type: functional; conditions: PC-3, 24 h, read-out: Activity
PC-3 [4] = assay: Cytotoxicity against human PC3 cells assessed as cell viability at 50 uM after 48 hrs by crystal violet method (reference value: 100.87 +/- 4.87%); type: functional; conditions: PC-3, 48 h, read-out: Activity
[5] = Induction of NO release in glutathione buffer assessed as nitrite level at 400 uM after 1 hr by Griess assay (reference value: 3.3 +/- 1.2 uM); type: physicochemical
PC-3 [6] = assay: Cytotoxicity against human PC3 cells assessed as cell viability at 500 nM after 72 hrs by crystal violet method; type: functional; conditions: PC-3, 72 h, read-out: Activity
[7] = Induction of NO release in glutathione buffer at 400 uM after 1 hr by Griess assay relative to sulindac; type: physicochemical
PC-3 [8] = assay: Cytotoxicity against human PC3 cells after 72 hrs by crystal violet method; type: functional, cell-based; conditions: PC-3, 72 h
PC-3 [9] = assay: Cytotoxicity against human PC3 cells at 50 nM after 72 hrs by crystal violet method; type: functional, cell-based

Row | Activity [5] | Activity [7] | Compound | viability at 50 µM (PC-3 [1]) | Activity (PC-3 [2]) | viability at 50 µM (PC-3 [3]) | viability at 50 µM (PC-3 [4]) | viability at 0.5 µM (PC-3 [6]) | IC50 (PC-3 [8]) | Activity (PC-3 [9])
1 |  |  | CC1=C(CC(=O)NCCNC(=O)/N=c2/c[n+](-c3ccccc3)[n-]o2)c2cc(F)ccc2/C1=C\c1ccc([S+](C)[O-])cc1 (configuration not stated) | 36.3% | inactive | 74% | 46.7% |  |  | 
2 |  |  | CC1=C(CC(=O)NCCOC(=O)/N=c2/c[n+](-c3ccccc3)[n-]o2)c2cc(F)ccc2/C1=C\c1ccc([S+](C)[O-])cc1 (configuration not stated) | 41.4% | inactive | 76.7% | 46.4% |  |  | 
3 | 41.1 µM | 10.3% | CSc1ccc(/C=C2/C(C)=C(CC(=O)OCCOc3no[n+]([O-])c3S(=O)(=O)c3ccccc3)c3cc(F)ccc32)cc1 | 0% |  | 0% | 0% | 11.9% | 41.4 µM | 
4 |  |  | CSc1ccc(/C=C2/C(C)=C(CC(=O)NCCOC(=O)/N=c3/c[n+](-c4ccccc4)[n-]o3)c3cc(F)ccc32)cc1 | 17.7% | inactive | 57.6% | 27.1% |  |  | 
5 | 33 µM | 8.2% | CSc1ccc(/C=C2/C(C)=C(CC(=O)OCCCCOc3no[n+]([O-])c3S(=O)(=O)c3ccccc3)c3cc(F)ccc32)cc1 | 0% |  | 0% | 0% | 9.17% | 40.3 µM | 
6 |  |  | CC1=C(CC(=O)/N=c2\c[n+](-c3ccccc3)[n-]o2)c2cc(F)ccc2/C1=C\c1ccc([S+](C)[O-])cc1 (configuration not stated) | 20.6% | inactive | 64.6% | 29.8% |  |  | 
7 |  |  | CSc1ccc(/C=C2/C(C)=C(CC(=O)OCCCOc3no[n+]([O-])c3S(=O)(=O)c3ccccc3)c3cc(F)ccc32)cc1 | 15.7% |  | 34.9% | 21.2% |  | 48.6 µM | 
8 |  |  | CC1=C(CC(=O)NCCOC(=O)/N=c2/c[n+](-c3ccccc3)[n-]o2)c2cc(F)ccc2/C1=C\c1ccc(S(C)(=O)=O)cc1 | 37.3% | inactive | 76.5% | 45.9% |  |  | 
9 | 54.4 µM | 13.6% | CC1=C(CC(=O)OCCCCCCOc2no[n+]([O-])c2S(=O)(=O)c2ccccc2)c2cc(F)ccc2/C1=C\c1ccc([S+](C)[O-])cc1 (configuration not stated) | 0% |  | 0% | 0% |  | 6.1 µM | Active
10 |  |  | CC1=C(CC(=O)OC(CO[N+](=O)[O-])CO[N+](=O)[O-])c2cc(F)ccc2/C1=C\c1ccc(S(C)(=O)=O)cc1 | 89.4% |  | 88% | 89% |  |  | 
11 |  |  | CSc1ccc(/C=C2/C(C)=C(CC(=O)OCC#CCOc3no[n+]([O-])c3S(=O)(=O)c3ccccc3)c3cc(F)ccc32)cc1 | 14.9% |  | 25.4% | 20.8% |  |  | 
12 |  |  | CC1=C(CC(=O)OCCOc2no[n+]([O-])c2S(=O)(=O)c2ccccc2)c2cc(F)ccc2/C1=C\c1ccc([S+](C)[O-])cc1 (configuration not stated) | 0% |  | 0% | 0% |  | 27.9 µM | 
13 |  |  | CC1=C(CC(=O)Oc2cccc(Oc3no[n+]([O-])c3S(=O)(=O)c3ccccc3)c2)c2cc(F)ccc2/C1=C\c1ccc(S(C)(=O)=O)cc1 | 0% |  | 0% | 0% |  |  | 
14 | 51.1 µM | 12.8% | CC1=C(CC(=O)OC/C=C\COc2no[n+]([O-])c2S(=O)(=O)c2ccccc2)c2cc(F)ccc2/C1=C\c1ccc([S+](C)[O-])cc1 (configuration not stated) | 0% |  | 0% | 0% |  | 12.1 µM | Active
15 |  |  | CC1=C(CC(=O)OCCOCCOc2no[n+]([O-])c2S(=O)(=O)c2ccccc2)c2cc(F)ccc2/C1=C\c1ccc([S+](C)[O-])cc1 (configuration not stated) | 0% |  | 0% | 0% |  | 26 µM | 
16 |  |  | CC1=C(CC(=O)NCCNC(=O)/N=c2/c[n+](-c3ccccc3)[n-]o2)c2cc(F)ccc2/C1=C\c1ccc(S(C)(=O)=O)cc1 | 55.5% | inactive | 86.1% | 58.2% |  |  | 
17 |  |  | CSc1ccc(/C=C2/C(C)=C(CC(=O)O)c3cc(F)ccc32)cc1 [SULINDAC SULFIDE] | 105% |  | 99.2% | 93.7% |  |  | 
18 |  |  | CC1=C(CC(=O)OC(CO[N+](=O)[O-])CO[N+](=O)[O-])c2cc(F)ccc2/C1=C\c1ccc([S+](C)[O-])cc1 (configuration not stated) | 30.2% |  | 46.5% | 44.9% |  |  | 
19 |  |  | CSc1ccc(/C=C2/C(C)=C(CC(=O)NCCNC(=O)/N=c3/c[n+](-c4ccccc4)[n-]o3)c3cc(F)ccc32)cc1 | 21.3% | inactive | 66.5% | 34.7% |  |  | 
20 |  |  | CC1=C(CC(=O)OCCCCOc2no[n+]([O-])c2S(=O)(=O)c2ccccc2)c2cc(F)ccc2/C1=C\c1ccc([S+](C)[O-])cc1 (configuration not stated) | 16.5% |  | 32.3% | 21.8% |  |  | 
21 | 1.1 µM | < 1% | CC1=C(CC(=O)O)c2cc(F)ccc2/C1=C\c1ccc([S+](C)[O-])cc1 (configuration not stated) [SULINDAC] | 89.3% |  | 87.3% | 101% |  |  | 
22 |  |  | CSc1ccc(/C=C2/C(C)=C(CC(=O)OCCO[N+](=O)[O-])c3cc(F)ccc32)cc1 | 91.2% |  | 95.6% | 119% |  |  | 
23 |  |  | CC1=C(CC(=O)OCCCCCCO[N+](=O)[O-])c2cc(F)ccc2/C1=C\c1ccc(S(C)(=O)=O)cc1 | 64% |  | 93.3% | 59% |  |  | 

Reference: ChEMBL document CHEMBL3102738, “Synthesis and biological evaluation of nitric oxide-donating analogues of sulindac for prostate cancer treatment” (Bioorg Med Chem, 2014)
